The subject of this experiment is Female ICR-CD-1 mice. As to the kind of experiment: Oral administration of absorption promoter mixed with insulin to mice: decrease in blood glucose and elevation of blood insulin versus control. The experiment is classed as in vivo. Also noted: Degree of Elevation of Blood Insulin: unit not given here. On the procedure: The absorption promoter samples listed in Table 2 were dissolved or suspended in 0.5% CMC-0.05M tris-HCl buffers (pH: 7.8) and the solutions or suspensions were mixed with aqueous insulin solution. Female ICR-CD-1 mice 5 to 7 weeks old were orally administered predetermined amounts of the mixtures. A predetermined duration later, the percent decrease in blood glucose and the degree of elevation of blood insulin as compared with the control group were measured. The symbol "Z" in the structural formulas in the table represents a benzyloxycarbonyl group. The upper figures in the columns "effectiveness" represent the percent decrease in blood glucose and the lower parenthesized figures indicate the degree of elevation in blood insulin.

Setting [1] is: oral, mice, sample 6.0 mg/10 g with insulin 2.5 U/10 g body weight, 30 minutes, vs control group.
The mark [2] stands for this setting: oral, mice, sample 6.0 mg/10 g with insulin 2.5 U/10 g body weight, 60 minutes, vs control group.
The mark [3] stands for this setting: oral, mice, sample 3.0 mg/10 g with insulin 2.5 U/10 g body weight, 30 minutes, vs control group.
The mark [4] stands for this setting: oral, mice, sample 3.0 mg/10 g with insulin 2.5 U/10 g body weight, 60 minutes, vs control group.
[5] abbreviates: oral, mice, sample 1.5 mg/10 g with insulin 2.5 U/10 g body weight, 30 minutes, vs control group.
[6] abbreviates: oral, mice, sample 1.5 mg/10 g with insulin 2.5 U/10 g body weight, 60 minutes, vs control group.
Setting [7] is: oral, mice, sample 3.1 mg/10 g with insulin 2.5 U/10 g body weight, 30 minutes, vs control group.
[8] abbreviates: oral, mice, sample 3.1 mg/10 g with insulin 2.5 U/10 g body weight, 60 minutes, vs control group.

Where a SMILES comes first, the peptide text is derived from it. [ ]: non-standard residue; d: D form. The star is where a group is joined. Cbz = O=C(OCc1ccccc1)*

In the case of `Cc1ccc(S(=O)(=O)N[C@@H](Cc2ccccc2)C(=O)O)cc1` [Sample S-33, N-(4-toluenesulfonyl)-L-phenylalanine], under setting [1], the “Decrease in Blood Glucose (%)” value was determined as 51.6% and the “Degree of Elevation of Blood Insulin” value was 18.1. Under setting [2], the “Decrease in Blood Glucose (%)” value worked out at 21.4% and the “Degree of Elevation of Blood Insulin” value worked out at 6.48.

For `O=C(N[C@@H](Cc1ccccc1)C(=O)O)C(F)=Cc1ccccc1` [Sample S-31, N-(α-fluorocinnamoyl)-L-phenylalanine], the “Decrease in Blood Glucose (%)” value is, setting by setting: under setting [3], 33.5%; under setting [4], 72.5%.

As to `O=C(N[C@H](Cc1ccccc1)C(=O)N[C@@H](Cc1ccccc1)C(=O)O)OCc1ccccc1` [Sample S-20, N-benzyloxycarbonyl-D-phenylalanyl-L-phenylalanine] (Cbz-[dF]-Phe-OH), the “Decrease in Blood Glucose (%)” value under setting [5] is reported as 22.4% and the “Decrease in Blood Glucose (%)” value under setting [6] worked out at 32.7%. Also, the “Degree of Elevation of Blood Insulin” value is, setting by setting: under setting [5], 2.33; under setting [6], 2.46.

Turning to `O=C(C=Cc1ccc(Cl)cc1)N[C@@H](Cc1ccccc1)C(=O)O` [Sample S-24, N-(4-chlorocinnamoyl)-L-phenylalanine], the “Decrease in Blood Glucose (%)” value under setting [5] is on record as 37.1% and the “Decrease in Blood Glucose (%)” value under setting [6] is recorded as 27.4%. The “Degree of Elevation of Blood Insulin” value under setting [5] came to 5.46 and the “Degree of Elevation of Blood Insulin” value under setting [6] is on record as 3.04.

In the case of `O=C(COc1ccccc1)N[C@@H](Cc1ccc([N+](=O)[O-])cc1)C(=O)O` [Sample S-6, N-phenoxyacetyl-4-nitro-L-phenylalanine], under setting [7], the “Decrease in Blood Glucose (%)” value was 21.5% and the “Degree of Elevation of Blood Insulin” value came to 20.6. Also, under setting [8], the “Decrease in Blood Glucose (%)” value turned out to be 44.7% and the “Degree of Elevation of Blood Insulin” value is 21.8.

For `O=C(N[C@@H](Cc1ccc(O)cc1)C(=O)O)OCc1ccccc1` [Sample S-16, N-benzyloxycarbonyl-L-tyrosine], the “Decrease in Blood Glucose (%)” value by setting is: under setting [1], 31.0%; (po, 6 mg, 1 h) 27.2%. Moreover, the “Degree of Elevation of Blood Insulin” value is reported as 50.0 under setting [1] and 2.99 under setting [2].

`O=C(NC(Cc1ccc(F)cc1)C(=O)N[C@@H](Cc1ccccc1)C(=O)O)OCc1ccccc1` (mixture of isomers) [Sample S-22, N-benzyloxycarbonyl-4-fluoro-DL-phenylalanyl-L-phenylalanine]: the “Decrease in Blood Glucose (%)” value is 63.7% under setting [3] and 51.9% under setting [4].

Take `Cc1ccc(S(=O)(=O)NC(Cc2ccccc2)C(=O)O)cc1` (racemic) [Sample S-34, N-(4-toluenesulfonyl)-DL-phenylalanine]: the “Decrease in Blood Glucose (%)” value reads like this: under setting [1], 27.3%; under setting [2], 93.1%. Besides, the “Degree of Elevation of Blood Insulin” value runs as follows: under setting [1], 13.8; under setting [2], 6.52.

As to `O=C(COc1ccc([N+](=O)[O-])cc1)NC(Cc1ccc([N+](=O)[O-])cc1)C(=O)O` (racemic) [Sample S-2, N-[(4-nitrophenoxy)acetyl]-4-nitro-DL-phenylalanine], the “Decrease in Blood Glucose (%)” value by setting is: under setting [1], 23.2%; under setting [2], 60.0%. Moreover, the “Degree of Elevation of Blood Insulin” value reads like this: under setting [1], more than 119; under setting [2], 89.7.

Turning to `O=C(N[C@@H](Cc1ccccc1)C(=O)O)c1ccccc1` [Sample S-14, N-benzoyl-L-phenylalanine], under setting [1], the “Decrease in Blood Glucose (%)” value is 35.2% and the “Degree of Elevation of Blood Insulin” value was determined as 6.31. Under setting [2], the “Decrease in Blood Glucose (%)” value came out at 37.8% and the “Degree of Elevation of Blood Insulin” value is recorded as 3.31.

Consider `O=C(C=Cc1ccc(Cl)cc1)N[C@H](Cc1ccccc1)C(=O)O` [Sample S-25, N-(4-chlorocinnamoyl)-D-phenylalanine], for which the “Decrease in Blood Glucose (%)” value came out at 34.9% under setting [5] and 29.5% under setting [6].

On to `O=C(N[C@@H](Cc1ccccc1)C(=O)NC(Cc1ccc(F)cc1)C(=O)O)OCc1ccccc1` (mixture of isomers) [Sample S-23, N-benzyloxycarbonyl-L-phenylalanyl-4-fluoro-DL-phenylalanine], for which the “Decrease in Blood Glucose (%)” value was found to be 67.5% under setting [3] and 39.4% under setting [4].

For `Cc1ccc(C=CC(=O)N[C@@H](Cc2ccccc2)C(=O)O)cc1` [Sample S-27, N-(4-methylcinnamoyl)-L-phenylalanine], the “Decrease in Blood Glucose (%)” value is 61.5% under setting [5] and 34.4% under setting [6]. Further, the “Degree of Elevation of Blood Insulin” value runs as follows: under setting [5], 7.76; under setting [6], 1.0.

Consider `O=C(Cc1cccc2ccccc12)N[C@@H](Cc1ccccc1)C(=O)O` [Sample S-1, N-[(1-naphthyl)acetyl]-L-phenylalanine], for which the “Decrease in Blood Glucose (%)” value under setting [1] was determined as 84.9% and the “Decrease in Blood Glucose (%)” value under setting [2] is recorded as 75.4%. For the same compound, the “Degree of Elevation of Blood Insulin” value stood at 56.4 under setting [1] and 60.0 under setting [2].

`O=C(C=Cc1cccc(C(F)(F)F)c1)N[C@H](Cc1ccccc1)C(=O)O` [Sample S-36, N-(3-trifluoromethylcinnamoyl)-D-phenylalanine]: the “Decrease in Blood Glucose (%)” value amounted to 52.0% under setting [3] and 49.1% under setting [4].

As to `COc1cccc(C=CC(=O)N[C@@H](Cc2ccccc2)C(=O)N[C@@H](Cc2ccccc2)C(=O)O)c1` [Sample S-32, N-(3-methoxycinnamoyl)-L-phenylalanyl-L-phenylalanine], under setting [4], the “Decrease in Blood Glucose (%)” value is reported as 23.8% and the “Degree of Elevation of Blood Insulin” value is recorded as 4.55.

As to `O=C(N[C@@H](Cc1ccc(OC(=O)OCc2ccccc2)cc1)C(=O)O)OCc1ccccc1` [Sample S-4, N,O-bis-(benzyloxycarbonyl)-L-tyrosine], under setting [3], the “Decrease in Blood Glucose (%)” value was 52.7% and the “Degree of Elevation of Blood Insulin” value is recorded as 6.54. Under setting [4], the “Decrease in Blood Glucose (%)” value came out at 31.1% and the “Degree of Elevation of Blood Insulin” value stood at 2.04.

Consider `O=C(C=Cc1cccc(C(F)(F)F)c1)N[C@@H](Cc1ccccc1)C(=O)O` [Sample S-30, N-(3-trifluoromethylcinnamoyl)-L-phenylalanine], for which the “Decrease in Blood Glucose (%)” value is, setting by setting: under setting [3], 48.8%; under setting [4], 44.4%.

`O=C(COc1ccccc1)N[C@H](Cc1ccccc1)C(=O)O` [Sample S-9, N-phenoxyacetyl-D-phenylalanine]: the “Decrease in Blood Glucose (%)” value worked out at 37.3% under setting [3] and 29.7% under setting [4]. The “Degree of Elevation of Blood Insulin” value runs as follows: under setting [3], 11.8; under setting [4], 2.67.

Take `O=C(CCCc1ccccc1)N[C@@H](Cc1ccccc1)C(=O)O` [Sample S-8, N-(4-phenylbutyrol)-L-phenylalanine]: the “Decrease in Blood Glucose (%)” value stood at 57.1% under setting [1] and 35.6% under setting [2]. In addition, the “Degree of Elevation of Blood Insulin” value was 7.31 under setting [1] and 9.64 under setting [2].

Turning to `O=C(N[C@@H](Cc1ccccc1)C(=O)N[C@H](Cc1ccccc1)C(=O)O)OCc1ccccc1` [Sample S-21, N-benzyloxycarbonyl-L-phenylalanyl-D-phenylalanine] (Cbz-Phe-[dF]-OH), under setting [1], the “Decrease in Blood Glucose (%)” value amounted to 42.6% and the “Degree of Elevation of Blood Insulin” value is 14.9. For the same compound, under setting [2], the “Decrease in Blood Glucose (%)” value was found to be 32.7% and the “Degree of Elevation of Blood Insulin” value was 5.26.
